Broadly, the Ki is the equilibrium dissociation constant of an inhibitor or competing ligand from its target.

This is an account of results in patent US20260285855A1, “HETEROARYL DERIVATIVES AS DDRS INHIBITORS” (CHIESI FARMACEUTICI S.P.A., priority 2023, published 2026).

In one assay the target is T1, DDR1 (Homo sapiens, UniProt Q08345).
T1 construct: purchased Carna Biosciences
Description: LanthaScreen Europium Kinase Binding assay, DDR1. The following applies: same binding assay, numeric values; for Ki: read-out: DDR1 Ki. How it is done:
(§1) DDR1 and DDR2 binding assays were performed using Life Technologies LanthaScreen™ Europium Kinase Binding assay. […] IC50 values were determined in GraphPad Prism 7.0 software, using 4 parameter model: log (inhibitor) vs. response. IC50 values were converted in Ki using the Cheng-Prusoff equation (Ki-IC50/(1+ [Tracer]/Kd).

Another assay concerns the target T2, DDR2 (Homo sapiens, UniProt Q16832).
T2 construct: purchased Life Technologies
T2 sequence (Q16832 22-855): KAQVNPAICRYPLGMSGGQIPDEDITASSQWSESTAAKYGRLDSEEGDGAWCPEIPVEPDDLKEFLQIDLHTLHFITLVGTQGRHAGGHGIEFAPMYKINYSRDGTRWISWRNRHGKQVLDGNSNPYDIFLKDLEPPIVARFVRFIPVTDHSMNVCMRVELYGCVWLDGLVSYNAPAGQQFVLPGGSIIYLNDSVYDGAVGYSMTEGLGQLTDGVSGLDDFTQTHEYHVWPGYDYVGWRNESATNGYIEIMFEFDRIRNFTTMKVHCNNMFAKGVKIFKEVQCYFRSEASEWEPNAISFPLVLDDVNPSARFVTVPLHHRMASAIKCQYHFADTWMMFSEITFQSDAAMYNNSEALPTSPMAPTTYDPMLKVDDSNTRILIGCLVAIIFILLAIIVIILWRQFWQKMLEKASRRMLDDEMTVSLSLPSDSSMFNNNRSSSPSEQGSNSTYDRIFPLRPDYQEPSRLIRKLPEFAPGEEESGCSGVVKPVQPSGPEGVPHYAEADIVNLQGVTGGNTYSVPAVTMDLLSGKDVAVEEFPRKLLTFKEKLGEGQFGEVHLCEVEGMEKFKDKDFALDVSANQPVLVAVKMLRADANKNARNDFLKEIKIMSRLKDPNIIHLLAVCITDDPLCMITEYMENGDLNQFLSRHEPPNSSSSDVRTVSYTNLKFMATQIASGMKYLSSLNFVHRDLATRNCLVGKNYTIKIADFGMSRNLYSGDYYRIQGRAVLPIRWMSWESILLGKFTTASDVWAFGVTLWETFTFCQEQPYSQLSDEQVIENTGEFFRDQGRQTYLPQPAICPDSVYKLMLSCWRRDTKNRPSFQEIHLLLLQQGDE
The experiment in a line: LanthaScreen Europium Kinase Binding assay, DDR2. As to conditions: same binding assay, numeric values; for Ki: read-out: DDR2 Ki. As for the experimental part: as §1
Background: In TR-FRET formats the signal depends on donor and acceptor labels being close together.

T1 sequence (Q08345 19-913): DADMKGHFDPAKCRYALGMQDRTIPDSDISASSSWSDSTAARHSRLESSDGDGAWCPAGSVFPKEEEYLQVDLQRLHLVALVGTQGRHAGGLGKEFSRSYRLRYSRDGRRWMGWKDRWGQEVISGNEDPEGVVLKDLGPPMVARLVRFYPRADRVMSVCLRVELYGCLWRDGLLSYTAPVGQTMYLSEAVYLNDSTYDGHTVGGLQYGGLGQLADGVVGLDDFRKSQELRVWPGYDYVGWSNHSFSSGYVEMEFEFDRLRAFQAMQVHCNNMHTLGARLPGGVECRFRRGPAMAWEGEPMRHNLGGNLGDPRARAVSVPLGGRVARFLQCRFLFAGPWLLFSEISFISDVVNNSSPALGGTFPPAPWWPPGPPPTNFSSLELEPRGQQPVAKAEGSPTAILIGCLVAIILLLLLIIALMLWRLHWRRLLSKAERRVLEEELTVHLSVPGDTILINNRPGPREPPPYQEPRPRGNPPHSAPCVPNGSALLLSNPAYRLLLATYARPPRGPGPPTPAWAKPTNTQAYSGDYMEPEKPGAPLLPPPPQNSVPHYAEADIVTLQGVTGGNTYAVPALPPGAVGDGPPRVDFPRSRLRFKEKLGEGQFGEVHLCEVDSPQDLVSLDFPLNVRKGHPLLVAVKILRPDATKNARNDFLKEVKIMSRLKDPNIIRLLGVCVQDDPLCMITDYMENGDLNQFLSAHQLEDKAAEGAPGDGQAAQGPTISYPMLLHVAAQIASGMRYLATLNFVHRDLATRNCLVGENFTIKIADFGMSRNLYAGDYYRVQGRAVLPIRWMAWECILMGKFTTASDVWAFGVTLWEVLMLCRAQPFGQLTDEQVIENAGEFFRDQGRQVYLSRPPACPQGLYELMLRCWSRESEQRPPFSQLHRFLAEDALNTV

For `O=C(NC1CC2(C1)CN(C(=O)c1cnn3ccncc13)C2)c1cccc(C(F)(F)F)c1` [Example C1, N-(2-(pyrazolo[1,5-a]pyrazine-3-carbonyl)-2-azaspiro[3.3]heptan-6-yl)-3-(trifluoromethyl)benzamide, reference compound], on DDR1, the “DDR1 Ki (nM)” value is “did not show a binding affinity” and the Ki was more than 500 nM. Further, at DDR2, the “DDR2 Ki (nM)” value is “did not show a binding affinity” and the inhibition constant (Ki) is more than 500 nM.
For the molecule `O=C(Cc1cccc(C(F)(F)F)c1)NC1CC2(C1)CN(C(=O)c1cnn3ccncc13)C2` [Example C2, N-(2-(pyrazolo[1,5-a]pyrazine-3-carbonyl)-2-azaspiro[3.3]heptan-6-yl)-2-(3-(trifluoromethyl)phenyl)acetamide, reference compound], at DDR1, the “DDR1 Ki (nM)” value is listed as “did not show a binding affinity” and the inhibitory constant (Ki) is more than 500 nM. For the same molecule, at DDR2, the “DDR2 Ki (nM)” value is recorded as “did not show a binding affinity” and the inhibition constant (Ki) was more than 500 nM.
Take `O=C(NC1CC2(C1)CN(C(=O)Nc1cccc(C(F)(F)F)c1)C2)c1cnn2ccncc12` [Example C3, N-(2-((3-(trifluoromethyl)phenyl)carbamoyl)-2-azaspiro[3.3]heptan-6-yl) pyrazolo[1,5-a]pyrazine-3-carboxamide, reference compound]: on DDR1, the “DDR1 Ki (nM)” value was “did not show a binding affinity” and the inhibitory constant (Ki) was more than 500 nM. On DDR2, the “DDR2 Ki (nM)” value was “did not show a binding affinity” and the inhibition constant Ki was more than 500 nM.
